Test results reported in patent US6264935A, “Ophthalmic composition containing a carbonic anhydrase inhibitor and xanthan gum” (priority 1996, dated 2001).
“Also recorded” adds a separate entry of the source.

How the values were obtained:
[1] = background; result in words; cited from earlier work
[2] = rabbit, in vivo

Compound	duration of activity and loss of effect [1]	reduction of intraocular pressure [1]	side effects / local effects [1]	change in ocular bioavailability compared with the TRUSOPT formulation [2]
CC(C)(C)NC[C@H](O)COc1nsnc1N1CCOCC1 [timolol]	long duration of activity; also recorded: minimal loss of effect with increased duration of dosing	found to reduce intraocular pressure	devoid of many unwanted side effects associated with pilocarpine; also recorded: devoid of local anaesthetic properties	–
CC[C@@H]1C(=O)OC[C@@H]1Cc1cncn1C [pilocarpine]	–	reduce intraocular pressure	undesirable local effects	–
polyvinyl alcohol	–	–	–	only minor changes in bioavailability
cyclodextrin	–	–	–	only minor changes in bioavailability
